Test results reported in publication PMC3829422, “Conformational Plasticity and Ligand Binding of Bacterial Monoacylglycerol Lipase” (The Journal of Biological Chemistry, 2013).
Positions count from the first letter of the chain named.

Tests used:
Assay in all cases: X-ray crystal structure, […] A
Type in all cases: binding
bMGL [1] = molecular target: T1, bMGL (Bacillus sp. H-257, UniProt P82597, D196N); settings: inactive variant; co-crystallised and soaked; HEPES pH 6.9; active site, chain A only; noncovalent
T1 construct: cap Asn-120-Thr-164; catalytic triad Ser-97, Asp-196, His-226
T1 sequence (P82597 1-250 D196N): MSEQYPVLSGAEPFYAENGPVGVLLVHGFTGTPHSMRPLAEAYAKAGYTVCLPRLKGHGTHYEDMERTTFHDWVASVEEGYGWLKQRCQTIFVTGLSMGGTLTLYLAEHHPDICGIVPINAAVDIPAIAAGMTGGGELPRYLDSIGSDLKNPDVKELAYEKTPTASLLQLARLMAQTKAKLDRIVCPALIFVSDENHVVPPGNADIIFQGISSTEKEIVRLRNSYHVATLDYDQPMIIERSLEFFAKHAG

bMGL [2] = molecular target: T2, bMGL (Bacillus sp. H-257, UniProt P82597); settings: covalent; Ser-97 phosphonate adduct, 4-nitrophenol released; MES/imidazole pH 6.5
T2 construct: cap Asn-120-Thr-164; catalytic triad Ser-97, Asp-196, His-226
T2 sequence (P82597 1-250): T1 sequence (P82597 1-250 D196N) with N196D

bMGL [3] = molecular target: T2, bMGL; settings: covalent; Ser-97 phosphonate adduct, 4-nitrophenol released; citric acid pH 5.2
bMGL [4] = molecular target: T2, bMGL; settings: covalent; Ser-97 phosphonate adduct, 4-nitrophenol released; citric acid pH 5.0

SMILES: CCCCCCCCCCCC(=O)OCC(O)CO (racemic) [1-LG, 1-lauroylglycerol]
- X-ray crystal structure, 2.8 A (bMGL [1]): we only interpreted the electron density of the bMGL(D196N)-1-LG crystal in chain A as substrate

SMILES: CCCCCCCCCCCCOP(=O)(CCCN=[N+]=[N-])Oc1ccc([N+](=O)[O-])cc1 (stereo not shown) [C12 ligand, dodecyl 4-nitrophenyl (3-azidopropyl)phosphonate]
- X-ray crystal structure, 1.7 A (bMGL [2]): both had the C12 ligand covalently bound in the active site

SMILES: CCCCCCCCCCCCCCOP(=O)(CCCN=[N+]=[N-])Oc1ccc([N+](=O)[O-])cc1 (stereo not shown) [C14 ligand]
- X-ray crystal structure, 1.85 A (bMGL [3]): electron densities for the ligands bound to active site residue Ser-97 were observed

SMILES: CCCCCCCCCCCCCCCCOP(=O)(CCCN=[N+]=[N-])Oc1ccc([N+](=O)[O-])cc1 (stereo not shown) [C16 ligand]
- X-ray crystal structure, 2.2 A (bMGL [4]): electron densities for the ligands bound to active site residue Ser-97 were observed
